# Patent US7932063B2, “Treatment of biomass to obtain fermentable sugars” (E. I. du Pont de Nemours and Company, priority 2005, dated 2011)
# Like-named read-outs stand apart in the source and are kept apart here.
# System: Z. mobilis strain 8b
# [1] = medium supplemented with 7.2 g/L acetic acid, pH 6.0, 30° C., vs unsupplemented control, FIG. 1
# [2] = medium supplemented with 6 g/L acetamide, pH 6.0, 30° C., vs unsupplemented control, FIG. 1
# Description: Fermentation medium was composed of 10 g/L yeast extract, 2 g/L KH2PO4, 70 g/L glucose, 40 g/L xylose and 0.1 M MES buffer.
SMILES,cell yield (as measured by dry cell mass) [1],growth rate of Z. mobilis [1],final density of Z. mobilis [2],growth rate of Z. mobilis [2],inhibition of biocatalyst growth (summary statement referring to Example 12)
CC(=O)O [acetic acid],lower cell yield,reduced growth rate,,,
CC(N)=O [acetamide],,,no influence,no influence,non-inhibitory
